Results from patent US8536202B2, “Triazole-substituted anthranilamides as pesticides” (Bayer Cropscience AG, priority 2010, dated 2013).
Read-outs that look alike come from different tables or passages of the source.

How the values were obtained:
[1] = tested on: green peach aphid (Myzus persicae); experiment: Myzus test (MYZUPE spray treatment), Use Example 4; assay type: in vivo; settings: 144 h, read-out: activity in %
Summary of the method: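 Compound was formulated in acetone/dimethylformamide with alkylaryl polyglycol ether emulsifier and diluted in emulsifier-containing water. It was sprayed onto Chinese cabbage leaf discs infested with all stages of Myzus persicae. Mortality (%) was scored after 6 days, where 100% means all aphids killed.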

[2] = tested on: larvae of the mustard beetle (Phaedon cochleariae); experiment: Phaedon test (PHAECO spray treatment); assay type: in vivo; settings: 168 h, read-out: activity in %
Summary of the method: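 Mortality of mustard beetle larvae, expressed as percent killed (100% all, 0% none), assessed 7 days after spraying. Spray liquor made from compound in acetone plus dimethylformamide with alkylaryl polyglycol ether, diluted in emulsifier-containing water to the desired concentration.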

[3] = log P determination by HPLC on reversed-phase columns (EEC Directive 79/831 Annex V.A8); assay type: physicochemical; settings: pH 2.7
Summary of the method: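 Calibration used unbranched alkan-2-ones of 3 to 16 carbons with known log P, values interpolated linearly from retention times between neighbouring standards. Acidic-range LC-MS run at pH 2.7, eluents aqueous and acetonitrile formic acid 0.1%, linear gradient 10% to 95% acetonitrile.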

[4] = tested on: caterpillars of the armyworm (Spodoptera frugiperda); experiment: Spodoptera frugiperda test (SPODFR spray treatment); assay type: in vivo; settings: 168 h, read-out: activity in %
Summary of the method: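 Percent caterpillar mortality read 7 days after infestation (0% none killed, 100% all killed). Treatment was a spray of the acetone/DMF/emulsifier formulation, water-diluted to test concentration, onto Zea mays leaf discs, allowed to dry before larvae were added.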

[5] = HPLC on reversed-phase columns (C 18), EEC Directive 79/831 Annex V.A8, read-out: logP
[6] = reversed-phase C18 HPLC column, HPLC on reversed-phase columns (C 18), EEC Directive 79/831 Annex V.A8, read-out: logP

| chromatographic logP [3, 6] | SMILES | pest or weed control at 100 g/ha [1] | pest or weed control at 100 g/ha [2] | chromatographic logP [3, 5] | pest or weed control at 100 g/ha [4] | pest or weed control at 100 g/ha ([1]; 100 g/ha, after 6 days) | pest or weed control at 100 g/ha ([2]; 100 g/ha, after 7 days) | chromatographic logP [3] | pest or weed control at 100 g/ha ([4]; 100 g/ha, after 7 days) |
| --- | --- | --- | --- | --- | --- | --- | --- | --- | --- |
|  | CCNC(=O)c1cc(C#N)cc(C)c1NC(=O)c1cc(Cn2ncc(C(F)(F)C(F)(F)C(F)(F)F)n2)nn1-c1ncccc1Cl [Example 372] | 100% | 100% | 3.65 | 100% |  |  |  |  |
|  | Cc1cc(I)cc(C(N)=O)c1NC(=O)c1cc(Cn2ncc(C(F)(F)F)n2)nn1-c1ncccc1Cl [Example 156] |  |  |  |  | 100% | 100% | 2.89 | 100% |
| 4.19 | Cc1cc(Cl)cc(C(=O)NC(C)(C)C)c1NC(=O)c1cc(Cn2cc(C(F)(C(F)(F)F)C(F)(F)F)nn2)nn1-c1ncccc1Cl [Example 228] |  |  |  |  | 80% | 100% |  | 100% |
|  | Cc1cc(Cl)cc(C(=O)NC(C)C2CC2)c1NC(=O)c1cc(Cn2cc(C(F)(F)F)nn2)nn1-c1ncccc1Cl (centres unmarked) [Example 193] |  |  |  |  | 100% | 100% | 3.34 | 100% |
|  | Cc1cc(C#N)cc(C(=O)NCC#N)c1NC(=O)c1cc(Cn2ncc(C(F)(F)F)n2)nn1-c1ncccc1Cl [Example 132] |  |  |  |  | 100% | 100% | 2.76 | 100% |
|  | CNC(=O)c1cc(Cl)cc(Cl)c1NC(=O)c1cc(Cn2cc(C(F)(F)F)nn2)nn1-c1ncccc1Cl [Example 197] |  |  |  |  | 90% | 100% | 2.59 | 100% |
|  | Cc1cc(Cl)cc(C(=O)NC(C)(C)C)c1NC(=O)c1cc(Cn2cc(C(F)(F)C(F)(F)C(F)(F)F)nn2)nn1-c1ncccc1Cl [Example 339] | 90% | 100% | 4.21 | 100% |  |  |  |  |
|  | CC(C)NC(=O)c1cc(Cl)cc(Cl)c1NC(=O)c1cc(Cn2ncc(C(F)(F)F)n2)nn1-c1ncccc1Cl [Example 150] |  |  |  |  | 90% | 100% | 3.41 | 100% |
|  | Cc1cc(Cl)cc(C(N)=O)c1NC(=O)c1cc(Cn2cc(C(F)(F)C(F)(F)C(F)(F)F)nn2)nn1-c1ncccc1Cl [Example 338] | 100% | 100% | 3.13 | 100% |  |  |  |  |
|  | Cc1cc(Cl)cc(C(N)=O)c1NC(=O)c1cc(Cn2ncc(C(F)(F)C(F)(F)C(F)(F)F)n2)nn1-c1ncccc1Cl [Example 384] | 100% | 100% | 3.5 | 100% |  |  |  |  |
| 4.04 | CSC[C@H](C)NC(=O)c1cc(Cl)cc(C)c1NC(=O)c1cc(Cn2cc(C(F)(C(F)(F)F)C(F)(F)F)nn2)nn1-c1ncccc1Cl [Example 230] |  |  |  |  | 80% | 100% |  | 100% |
|  | Cc1cc(Cl)cc(C(=O)NC(C)(C)C)c1NC(=O)c1cc(Cn2cc(C(F)(F)C(F)(F)F)nn2)nn1-c1ncccc1Cl [Example 304] |  |  |  |  | 100% | 100% | 3.85 | 100% |
|  | Cc1cc(C#N)cc(C(=O)NC2CC2)c1NC(=O)c1cc(Cn2ncc(C(F)(F)F)n2)nn1-c1ncccc1Cl [Example 126] |  |  |  |  | 100% | 100% | 2.9 | 83% |
|  | Cc1cc(Cl)cc(C(=O)NCC#N)c1NC(=O)c1cc(Cn2cc(C(F)(F)F)nn2)nn1-c1ncccc1Cl [Example 196] |  |  |  |  | 100% | 100% | 2.61 | 100% |
|  | CSC[C@H](C)NC(=O)c1cc(Cl)cc(C)c1NC(=O)c1cc(Cn2cc(C(F)(F)C(F)(F)C(F)(F)F)nn2)nn1-c1ncccc1Cl [Example 324] | 100% | 100% | 3.99 | 100% |  |  |  |  |
|  | CSC[C@H](C)NC(=O)c1cc(Cl)cc(C)c1NC(=O)c1cc(Cn2cc(C(F)(F)C(F)(F)F)nn2)nn1-c1ncccc1Cl [Example 307] |  |  |  |  | 100% | 100% | 3.66 | 100% |
|  | Cc1cc(C#N)cc(C(=O)NC(C)C2CC2)c1NC(=O)c1cc(Cn2cc(C(F)(F)F)nn2)nn1-c1ncccc1Cl (centres unmarked) [Example 178] |  |  |  |  | 100% | 100% | 2.95 | 100% |
|  | Cc1cc(Cl)cc(C(=O)NC2CC2)c1NC(=O)c1cc(Cn2cc(C(F)(F)C(F)(F)C(F)(F)F)nn2)nn1-c1ncccc1Cl [Example 326] | 100% | 100% | 3.57 | 100% |  |  |  |  |
|  | Cc1cc(Cl)cc(C(N)=O)c1NC(=O)c1cc(Cn2cc(C(F)(F)C(F)(F)F)nn2)nn1-c1ncccc1Cl [Example 306] |  |  |  |  | 100% | 100% | 2.78 | 100% |
|  | CNC(=O)c1cc(C#N)cc(C)c1NC(=O)c1cc(Cn2cc(C(F)(C(F)(F)F)C(F)(F)F)nn2)nn1-c1ncccc1Cl [Example 217] |  |  |  |  | 100% | 100% | 3.03 | 100% |
|  | Cc1cc(I)cc(C(=O)NCC#N)c1NC(=O)c1cc(Cn2ncc(C(F)(F)F)n2)nn1-c1ncccc1Cl [Example 165] |  |  |  |  | 100% | 100% | 3.11 | 100% |
| 3.63 | CSC[C@H](C)NC(=O)c1cc(C#N)cc(C)c1NC(=O)c1cc(Cn2cc(C(F)(C(F)(F)F)C(F)(F)F)nn2)nn1-c1ncccc1Cl [Example 222] |  |  |  |  | 100% | 100% |  | 100% |
|  | CNC(=O)c1cc(Cl)cc(Cl)c1NC(=O)c1cc(Cn2ncc(C(F)(C(F)(F)F)C(F)(F)F)n2)nn1-c1ncccc1Cl [Example 273] |  |  |  |  | 100% | 100% | 3.69 | 100% |
|  | Cc1cc(Cl)cc(C(N)=O)c1NC(=O)c1cc(Cn2cc(C(F)(F)F)nn2)nn1-c1ncccc1Cl [Example 192] |  |  |  |  | 100% | 100% | 2.44 | 100% |
|  | Cc1cc(Cl)cc(C(=O)NC(C)C)c1NC(=O)c1cc(Cn2cc(C(F)(F)C(F)(F)F)nn2)nn1-c1ncccc1Cl [Example 303] |  |  |  |  | 100% | 100% | 3.5 | 100% |
|  | Cc1cc(I)cc(C(N)=O)c1NC(=O)c1cc(Cn2cc(C(F)(F)C(F)(F)F)nn2)nn1-c1ncccc1Cl [Example 315] |  |  |  |  | 90% | 100% | 2.98 | 100% |
